Laboratory results reported in patent US20240041042A1, “1-(PYRIDYL)-5-AZINYLPYRAZOLE DERIVATIVES, AND THEIR USE FOR CONTROL OF UNDESIRED PLANT GROWTH” (Bayer Aktiengesellschaft, priority 2020, published 2024).
Like-named read-outs stand apart in the source and are kept apart here.

How the values were obtained:
Type in all cases: in vivo
Setaria viridis (SETVI) [1] = assay: Post-emergence herbicidal action against SETVI
Experimental: (§1) Seeds of monocotyledonous and dicotyledonous weeds and crop plants are placed in sandy loam in plastic or organic planting pots, covered with soil and cultivated in a greenhouse under controlled growth conditions. 2 to 3 weeks after sowing, the test plants are treated at the one-leaf stage. The compounds of the invention, formulated in the form of wettable powders (WP) or as emulsion concentrates (EC), are then sprayed onto the green parts of the plants as aqueous suspension or emulsion with addition of 0.5% additive at a water application rate of 600 l/ha (converted). After the test plants have been kept in the greenhouse under optimum growth conditions for about 3 weeks, the activity of the preparations is rated visually in comparison to untreated controls. For example, 100% activity=the plants have died, 0% activity=like control plants.
(§2) Tables B1 to B13 below show the effects of selected compounds of the general formula (I) according to Table 1 on various harmful plants and at an application rate corresponding to 320 g/ha or lower, which were obtained by the experimental procedure mentioned above. The appendices “a”, “b” and “c” give differentiation by dosage used with otherwise the same harmful plants tested.

Lolium rigidum (LOLRI) [2] = assay: Pre-emergence herbicidal action against LOLRI
Source text: (§3) Seeds of monocotyledonous and dicotyledonous weed plants and crop plants are placed in plastic or organic planting pots and covered with soil. The compounds of the invention, formulated in the form of wettable powders (WP) or as emulsion concentrates (EC), are then applied to the surface of the covering soil as aqueous suspension or emulsion with addition of 0.5% additive at a water application rate equivalent to 600 l/ha. After the treatment, the pots are placed in a greenhouse and kept under good growth conditions for the trial plants. After about 3 weeks, the effect of the preparations is scored visually in comparison with untreated controls as percentages. For example, 100% activity=the plants have died, 0% activity=like control plants.
(§4) Tables A1 to A13 below show the effects of selected compounds of the general formula (I) on various harmful plants and at an application rate corresponding to 320 g/ha or lower, which were obtained by the experimental procedure mentioned above. The appendices “a”, “b” and “c” give differentiation by dosage used with otherwise the same harmful plants tested.

Lolium rigidum (LOLRI) [3] = assay: Post-emergence herbicidal action against LOLRI
Experimental: as §1, §2

Viola tricolor (VIOTR) [4] = assay: Pre-emergence herbicidal action against VIOTR
Source text: as §3, §4

[5] = system: Alopecurus myosuroides (ALOMY); assay: Pre-emergence herbicidal action against ALOMY; conditions: scored visually after about 3 weeks, 100% = plants have died
Source text: as §3, §4

[6] = system: Verconica persica (VERPE); assay: Pre-emergence herbicidal action against VERPE
Source text: as §3, §4

[7] = system: Echinochloa crus-galli (ECHCG); assay: Post-emergence herbicidal action against ECHCG
Experimental: as §1, §2

[8] = system: Alopecurus myosuroides (ALOMY); assay: Post-emergence herbicidal action against ALOMY; conditions: visual rating about 3 weeks after treatment vs untreated controls (100% = plants have died, 0% = like control plants)
Experimental: as §1, §2

[9] = system: Pharbitis purpurea (PHBPU); assay: Pre-emergence herbicidal action against PHBPU; conditions: dosage 320 g/ha
Source text: as §3, §4

Avena fatua (AVEFA) [10] = assay: Pre-emergence herbicidal action against AVEFA; conditions: visual scoring after about 3 weeks vs untreated controls
Source text: as §3, §4

[11] = system: Amaranthus retroflexus (AMARE); assay: Post-emergence herbicidal action against AMARE
Experimental: as §1, §2

[12] = system: Polygonum convolvulus (POLCO); assay: Pre-emergence herbicidal action against POLCO
Source text: as §3, §4

[13] = system: Verconica persica (VERPE); assay: Post-emergence herbicidal action against VERPE
Experimental: as §1, §2

Zea mays (ZEAMX) = conditions: for Post-emergence action against ZEAMX in % (crop plant compatibility): 20 g/ha, effect in comparison to untreated controls; for Post-emergence action against ZEAMX in %: crop plant compatibility, effect vs untreated controls
Experimental: as §1
(§5) The observed effects on selected crop plants are reported here in comparison to the untreated controls (values in %). The appendices “a”, “b” and “c” give differentiation by dosage used with otherwise the same crop plants tested.

Setaria viridis (SETVI) [14] = assay: Pre-emergence herbicidal action against SETVI
Source text: as §3, §4

Avena fatua (AVEFA) [15] = assay: Post-emergence herbicidal action against AVEFA; conditions: visual rating about 3 weeks after treatment
Experimental: as §1, §2

[16] = system: Amaranthus retroflexus (AMARE); assay: Pre-emergence herbicidal action against AMARE; conditions: visual scoring after about 3 weeks vs untreated controls
Source text: as §3, §4

[17] = system: Echinochloa crus-galli (ECHCG); assay: Pre-emergence herbicidal action against ECHCG
Source text: as §3, §4

[18] = system: Pharbitis purpurea (PHBPU); assay: Post-emergence herbicidal action against PHBPU
Experimental: as §1, §2

[19] = system: Matricaria inodora (MATIN); assay: Pre-emergence herbicidal action against MATIN; conditions: dosage 320 g/ha
Source text: as §3, §4

Oryza sativa (ORYSA) = conditions: crop plant compatibility
Experimental: as §1, §5

[20] = system: Polygonum convolvulus (POLCO); assay: Post-emergence herbicidal action against POLCO; conditions: dosage 320 g/ha
Experimental: as §1, §2

Viola tricolor (VIOTR) [21] = assay: Post-emergence herbicidal action against VIOTR; conditions: 320 g/ha
Experimental: as §1, §2

[22] = system: Abutilon theophrasti (ABUTH); assay: Post-emergence herbicidal action against ABUTH; conditions: 320 g/ha, visual rating about 3 weeks after treatment vs untreated controls (100% = plants have died, 0% = like control plants)
Experimental: as §1, §2

[23] = 80 g/ha, visual rating about 3 weeks after treatment vs untreated controls (100% = plants have died, 0% = like control plants)
[24] = 80 g/ha, effect in comparison to untreated controls

| Post-emergence action against ZEAMX in % (crop plant compatibility) (Zea mays (ZEAMX)) [%] | Post-emergence action against ZEAMX in % (Zea mays (ZEAMX); 80 g/ha) [%] | SMILES | Pre-emergence action against LOLRI in % (Lolium rigidum (LOLRI) [2]; dosage 80 g/ha) [%] | Pre-emergence action against LOLRI in % (Lolium rigidum (LOLRI) [2]; dosage 320 g/ha) [%] | Post-emergence action against LOLRI in % (Lolium rigidum (LOLRI) [3]; dosage 80 g/ha) [%] | Pre-emergence action against VIOTR in % (Viola tricolor (VIOTR) [4]; 320 g/ha, Viola tricolor) [%] | Pre-emergence action against VIOTR in % (Viola tricolor (VIOTR) [4]; dosage 80 g/ha) [%] | Pre-emergence action against ALOMY ([5]; 80 g/ha) [%] | Pre-emergence action against ALOMY ([5]; 320 g/ha) [%] | Pre-emergence action against VERPE in % ([6]; dosage 320 g/ha) [%] | Post-emergence action against ALOMY in % ([8]; 80 g/ha) [%] | Pre-emergence action against AVEFA in % (Avena fatua (AVEFA) [10]; 320 g/ha) [%] | Post-emergence action against AMARE in % [11, 23] [%] | Pre-emergence action against POLCO in % ([12]; dosage 320 g/ha) [%] | Post-emergence action against VERPE in % ([13]; dosage 80 g/ha) [%] | Pre-emergence action against SETVI in % (Setaria viridis (SETVI) [14]; dosage 80 g/ha) [%] | Pre-emergence action against SETVI in % (Setaria viridis (SETVI) [14]; dosage 320 g/ha) [%] | Pre-emergence action against AMARE in % ([16]; 80 g/ha) [%] | Pre-emergence action against AMARE in % ([16]; 320 g/ha) [%] | Pre-emergence action against ECHCG in % ([17]; dosage 320 g/ha) [%] | also measured |
| --- | --- | --- | --- | --- | --- | --- | --- | --- | --- | --- | --- | --- | --- | --- | --- | --- | --- | --- | --- | --- | --- |
| 0 | 20 | CCOC(=O)COc1nn(-c2ncccc2F)c(-c2ccc(F)nc2)c1C1CC1 [Example I-40] | 90 | 100 | 90 | 100 | 90 | 100 | 100 | 100 | 100 | 100 | 80 | 80 | 80 | 100 | 100 | 80 | 100 | 100 | Post-emergence action against SETVI in % (Setaria viridis (SETVI) [1]; dosage 80 g/ha): 80%; Post-emergence action against ECHCG in % ([7]; dosage 80 g/ha): 90%; Pre-emergence action against PHBPU in % [9]: 80%; Post-emergence action against AVEFA in % (Avena fatua (AVEFA) [15]; 80 g/ha): 80%; Pre-emergence action against ECHCG in % ([17]; dosage 80 g/ha): 90%; Post-emergence action against PHBPU in % ([18]; dosage 80 g/ha): 80% |
| 10 | 10 | COCCOCCOC(=O)[C@@H](C)Oc1nn(-c2ncccc2F)c(-c2ccc(F)nc2)c1Br [Example I-34] | 90 | 100 | 80 | 100 | 100 | 90 | 100 | 100 | 90 | 90 |  | 90 | 90 | 90 | 100 | 100 | 100 | 100 | Pre-emergence action against VERPE in % ([6]; dosage 80 g/ha): 90%; Pre-emergence action against AVEFA in % (Avena fatua (AVEFA) [10]; 80 g/ha): 80%; Pre-emergence action against POLCO in % ([12]; dosage 80 g/ha): 80%; Pre-emergence action against MATIN in % [19]: 90%; Post-emergence action against ORYSA in % (Oryza sativa (ORYSA); 20 g/ha, effect vs untreated controls): 10%; Post-emergence action against ORYSA in % (Oryza sativa (ORYSA); [24]): 20%; Post-emergence action against AVEFA in % (Avena fatua (AVEFA) [15]; 80 g/ha): 90%; Post-emergence action against PHBPU in % ([18]; dosage 80 g/ha): 80% |
|  | 0 | CCOC(=O)[C@@H](C)Oc1nn(-c2ncccc2F)c(-c2ccc(F)nc2)c1F [Example I-320] |  | 100 |  | 100 |  |  | 90 |  |  | 90 | 80 | 90 |  |  | 90 | 80 | 90 | 90 | Post-emergence action against SETVI in % (Setaria viridis (SETVI) [1]; dosage 320 g/ha): 90%; Post-emergence action against LOLRI in % (Lolium rigidum (LOLRI) [3]; dosage 320 g/ha): 90%; Post-emergence action against ECHCG in % ([7]; dosage 320 g/ha): 90%; Post-emergence action against ALOMY in % ([8]; 320 g/ha): 100%; Post-emergence action against POLCO in % [20]: 80%; Post-emergence action against VIOTR in % (Viola tricolor (VIOTR) [21]): 80%; Post-emergence action against AMARE in % ([11]; 320 g/ha, visual rating about 3 weeks after treatment): 80%; Post-emergence action against ABUTH in % [22]: 80%; Post-emergence action against VERPE in % ([13]; 320 g/ha, VERPE): 90%; Pre-emergence action against MATIN in % [19]: 80%; Post-emergence action against ORYSA in % (Oryza sativa (ORYSA); [24]): 0%; Post-emergence action against ZEAMX in % (Zea mays (ZEAMX); 320 g/ha): 20%; Post-emergence action against AVEFA in % (Avena fatua (AVEFA) [15]; 320 g/ha): 80%; Post-emergence action against PHBPU in % ([18]; dosage 320 g/ha): 80% |
